Source: ChEMBL document CHEMBL5357063, “Lysophosphatidylcholines Enriched with cis and trans Palmitoleic Acid Regulate Insulin Secretion via GPR119 Receptor” (ACS Med Chem Lett, 2024)
Active and inactive are the calls of the source. The rule behind the calls is not given here.

How the values were obtained:
EndoC-betaH1 [1] = assay: Induction of glucose stimulated insulin secretion in human EndoC-betaH1 cells at 100 nM incubated for 1 hr in presence of GPR119 antagonist by ELISA method; type: functional, cell-based
EndoC-betaH1 [2] = assay: Induction of cAMP production in human EndoC-betaH1 cells at 5 uM in presence of GPR40 antagonist by ELISA method; type: functional, cell-based
EndoC-betaH1 [3] = assay: Induction of cAMP production in human EndoC-betaH1 cells at 5 uM in presence of GPR120 antagonist by ELISA method; type: functional, cell-based
EndoC-betaH1 [4] = assay: Induction of cAMP production in human EndoC-betaH1 cells at 5 uM in presence of GPR119 antagonist by ELISA method; type: functional, cell-based
EndoC-betaH1 [5] = assay: Induction of glucose stimulated insulin secretion in human EndoC-betaH1 cells at 5 uM incubated for 1 hr in presence of GPR120 antagonist by ELISA method; type: functional, cell-based
EndoC-betaH1 [6] = assay: Induction of glucose stimulated insulin secretion in human EndoC-betaH1 cells at 5 uM incubated for 1 hr in presence of GPR40 antagonist by ELISA method; type: functional, cell-based
EndoC-betaH1 [7] = assay: Effect on intracellular calcium mobilization in human EndoC-betaH1 cells at 5 uM measured after 3 mins; type: functional, cell-based
EndoC-betaH1 [8] = assay: Induction of glucose stimulated insulin secretion in human EndoC-betaH1 cells at 5 uM incubated for 1 hr in presence of GPR119 antagonist by ELISA method; type: functional, cell-based
EndoC-betaH1 [9] = assay: Induction of insulin secretion in human EndoC-betaH1 cells at 5 uM incubated for 1 hr by ELISA method; type: functional, cell-based
Cell membrane = assay: Induction of cell membrane permeabilization in human EndoC-betaH1 cells at 10 uM measured upto 3.5 mins propidium iodide staining based fluorescence analysis; type: subcellular
EndoC-betaH1 [10] = assay: Induction of glucose stimulated insulin secretion in human EndoC-betaH1 cells at 5 uM incubated for 1 hr in presence of GPR55 antagonist by ELISA method; type: functional, cell-based
EndoC-betaH1 [11] = assay: Induction of cAMP production in human EndoC-betaH1 cells at 5 uM in presence of GPR55 antagonist by ELISA method; type: functional, cell-based
EndoC-betaH1 [12] = assay: Cytotoxicity against human EndoC-betaH1 cells assessed as reduction in cell viability at 1 uM measured after 24 to 72 hrs by PrestoBlue cell viability assay; type: toxicity, cell-based; conditions: endoc-betah1, 1 µM, time 24-72 hrs
EndoC-betaH1 [13] = assay: Cytotoxicity against human EndoC-betaH1 cells assessed as reduction in cell viability at 5 uM measured after 48 to 72 hrs by PrestoBlue cell viability assay; type: toxicity, cell-based; conditions: endoc-betah1, 5 µM, time 48-72 hrs
EndoC-betaH1 [14] = assay: Cytotoxicity against human EndoC-betaH1 cells assessed as reduction in cell viability at 10 to 1000 uM measured after 24 to 72 hrs by PrestoBlue cell viability assay; type: toxicity, cell-based; conditions: endoc-betah1, 1000 µM, dose lower 10 µM, time lower 24 hrs, dose upper 1000 µM, time upper 72 hrs
[15] = Induction of cAMP production in human EndoC-betaH1 cells at 5 uM measured per mg of protein in presence of GPR119 antagonist by ELISA method; type: functional
EndoC-betaH1 [16] = assay: Induction of glucose stimulated insulin secretion in human EndoC-betaH1 cells at 5 uM incubated for 1 hr in presence of GPR119 antagonist by ELISA method (reference value: 1.97 fmol/microg); type: functional
EndoC-betaH1 [17] = assay: Induction of glucose stimulated insulin secretion in human EndoC-betaH1 cells transfected with siRNA measured after 48 hrs in presence of GPR119 antagonist by ELISA method; type: functional, cell-based
EndoC-betaH1 [18] = assay: Induction of glucose stimulated insulin secretion in human EndoC-betaH1 cells at 1 uM incubated for 1 hr in presence of GPR119 antagonist by ELISA method; type: functional, cell-based
[19] = Induction of cAMP production in human EndoC-betaH1 cells at 5 uM by ELISA method; type: functional
EndoC-betaH1 [20] = assay: Induction of glucose stimulated insulin secretion in human EndoC-betaH1 cells at 5 uM incubated for 1 hr in presence of GPR119 antagonist by ELISA method (reference value: 2.03 fmol/microg); type: functional
EndoC-betaH1 [21] = assay: Cytotoxicity against human EndoC-betaH1 cells assessed as reduction in cell viability at 10 uM measured after 24 to 72 hrs by PrestoBlue cell viability assay; type: toxicity, cell-based; conditions: endoc-betah1, 10 µM, time 24-72 hrs

Q: Which Activity (EndoC-betaH1 [1]) does the source give for `CC(C)c1noc(C2CCN(c3ncnc(Nc4ccc(S(C)(=O)=O)cc4F)c3[N+](=O)[O-])CC2)n1` here?
A: Active

Q: Which Activity (EndoC-betaH1 [2]) does the source give for `CCCCCCCCCCCCCCCC(=O)OC[C@@H](O)COP(=O)([O-])OCC[N+](C)(C)C` here?
A: Active

Q: What about the Activity (EndoC-betaH1 [3]) of the same compound?
A: Active

Q: And the Activity (EndoC-betaH1 [4])?
A: Active

Q: And the Activity (EndoC-betaH1 [5])?
A: Active

Q: And the Activity (EndoC-betaH1 [6])?
A: Active

Q: And the Activity (EndoC-betaH1 [7])?
A: inactive

Q: And the Activity (EndoC-betaH1 [8])?
A: inactive

Q: What about the Activity (EndoC-betaH1 [9]) of the same compound?
A: Active

Q: What about the Activity (Cell membrane) of the same compound?
A: inactive

Q: What about the Activity (EndoC-betaH1 [10]) of the same compound?
A: Active

Q: And the Activity (EndoC-betaH1 [11])?
A: Active

Q: Which results are given for `CCCCCC/C=C/CCCCCCCC(=O)OC[C@@H](O)COP(=O)([O-])OCC[N+](C)(C)C`?
A: Activity (EndoC-betaH1 [12]): Non-Toxic; Activity (EndoC-betaH1 [2]): Active; Activity (EndoC-betaH1 [13]): Toxic; Activity (EndoC-betaH1 [3]): Active; Activity (EndoC-betaH1 [5]): Active; Activity (EndoC-betaH1 [14]): Toxic; Activity [15]: 0.65 pmol; Activity (EndoC-betaH1 [6]): Active; Activity (EndoC-betaH1 [7]): inactive; Activity (EndoC-betaH1 [16]): 1.34 fmol/µg; Activity (EndoC-betaH1 [9]): Active; Activity (Cell membrane): inactive; Activity (EndoC-betaH1 [10]): Active; Activity (EndoC-betaH1 [17]): inactive

Q: For `CCCCCC/C=C\CCCCCCCC(=O)OC[C@@H](O)COP(=O)([O-])OCC[N+](C)(C)C`, which Activity (EndoC-betaH1 [2]) is on record?
A: Active

Q: What about the Activity (EndoC-betaH1 [3]) of the same compound?
A: Active

Q: What about the Activity (EndoC-betaH1 [5]) of the same compound?
A: Active

Q: What about the Activity [15] of the same compound?
A: 0.8 pmol

Q: What about the Activity (EndoC-betaH1 [18]) of the same compound?
A: Active

Q: What about the Activity [19] of the same compound?
A: 1.87 pg/µg

Q: What about the Activity (EndoC-betaH1 [6]) of the same compound?
A: Active

Q: What about the Activity (EndoC-betaH1 [20]) of the same compound?
A: 1.47 fmol/µg

Q: What about the Activity (EndoC-betaH1 [7]) of the same compound?
A: inactive

Q: And the Activity (EndoC-betaH1 [9])?
A: Active

Q: And the Activity (Cell membrane)?
A: inactive

Q: And the Activity (EndoC-betaH1 [10])?
A: Active

Q: And the Activity (EndoC-betaH1 [11])?
A: inactive

Q: And the Activity (EndoC-betaH1 [17])?
A: inactive

Q: And the Activity (EndoC-betaH1 [21])?
A: Non-Toxic
